The text below walks through data of US20160208002A1, “Compositions Associated with and Methods of Managing Neutrophil Movement” (priority 2013, published 2016).

Test [1] concerns the target T1, CD209 (Homo sapiens, UniProt Q9NNX6).
T1 sequence (Q9NNX6 1-404): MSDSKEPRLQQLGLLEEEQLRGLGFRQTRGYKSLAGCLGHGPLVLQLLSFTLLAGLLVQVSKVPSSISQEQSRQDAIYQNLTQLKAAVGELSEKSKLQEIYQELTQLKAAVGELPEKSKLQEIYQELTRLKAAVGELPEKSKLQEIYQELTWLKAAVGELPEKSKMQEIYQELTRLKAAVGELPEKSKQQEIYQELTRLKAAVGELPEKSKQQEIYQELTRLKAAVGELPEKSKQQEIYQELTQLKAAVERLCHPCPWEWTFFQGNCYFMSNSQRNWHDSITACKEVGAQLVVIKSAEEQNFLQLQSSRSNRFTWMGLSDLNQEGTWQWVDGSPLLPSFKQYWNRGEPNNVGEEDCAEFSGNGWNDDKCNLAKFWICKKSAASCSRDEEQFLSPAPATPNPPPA
To be noted: read-out: affinity for CD209, Kd; cited from earlier work.

Test [2] deals with human neutrophils. Nature of the test: human neutrophil adhesion to human fibronectin after TNF-α. The test is classed as cell-based. Conditions: fibronectin-coated plate, FIG. 2. From the text: Human blood was collected into EDTA tubes (BD Bioscience, San Jose, Calif.) from adult volunteers who gave written consent and with specific approval from the Texas A&M University human subjects Institutional Review Board. Neutrophils were then isolated from the blood using Lympholyte-poly (Cedarlane Laboratories, Hornby, BC, Canada) following the manufacturer's protocol and resuspended in 2% bovine serum albumen (BSA) (fraction V, A3059; Sigma-Aldrich) in RPMI 1640 medium (Lonza, Allendale, N.J.). 96-well tissue culture plates (flat-bottom polystyrene, BD Bioscience) were pre-coated with 20 μg/ml of human plasma fibronectin (Trevigen, Gaithersburg, Md.) in phosphate buffered saline (PBS) for 30 minutes at 37° C. and then blocked with 2% BSA in RPMI for 1 hour at 37° C. 50 microliters of 5×10^5 cells/ml neutrophils were incubated with 3 microgram/ml (0.5 microliters of the stock solution) of compound 1 or 3 for 30 minutes at 37° C. in a 1.5 ml Eppendorf tube (Eppendorf, Hauppauge, N.Y.). When testing the effect of CD209 antibodies on neutrophil adhesion to human fibronectin, anti-human CD209 antibodies clone DCN46 (BD Biosciences, San Jose, Calif.), eB-h209 (eBioscience, San Jose, Calif.), H-200 (Santa Cruz Biotechnology, Dallas, Tex.), ab89186 (Abcam, Cambridge, Mass.), or 9E9A8 (Biolegend Inc, San Diego, Calif.) were incubated with neutrophils at a concentration of 1 microgram/ml (0.2 microliters of the stock solution) or the concentration indicated on the figure. Rat IgG2a was used as an isotype control for the anti-human CD209 antibody clone eB-h209. Mouse IgG2b was used as an isotype control for the anti-human CD209 antibody clone DCN46. Mouse IgG1 was used as an isotype control for the anti-human CD209 antibody clone 9E9A8. Rabbit IgG was used as an isotype control for the two rabbit anti-human CD209 antibodies clone H-200 and ab89186. […] After removing the media and washing the plates 3 times with PBS, the plates were air-dried, fixed, stained, and the number of neutrophils that remained in the wells was counted. […]

Test [3] deals with T2, CD209 tetramer (Homo sapiens, UniProt Q9NNX6).
T2 sequence (Q9NNX6 59-404 limits assumed): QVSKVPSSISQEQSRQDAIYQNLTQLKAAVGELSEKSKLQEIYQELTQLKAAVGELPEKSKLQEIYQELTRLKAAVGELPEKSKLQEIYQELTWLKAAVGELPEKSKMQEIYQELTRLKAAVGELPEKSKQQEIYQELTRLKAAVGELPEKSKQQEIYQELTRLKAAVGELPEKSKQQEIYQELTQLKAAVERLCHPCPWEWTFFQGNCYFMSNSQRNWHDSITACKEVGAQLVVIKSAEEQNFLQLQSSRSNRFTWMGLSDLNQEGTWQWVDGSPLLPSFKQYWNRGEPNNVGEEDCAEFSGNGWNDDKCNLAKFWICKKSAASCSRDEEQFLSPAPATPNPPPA
Conditions: concentration required to inhibit, by 50%, the binding of a fluorescently labeled mannosylated glycoconjugate to CD209 tetramer; cited from earlier work.

In general, Kd refers to a measure of binding affinity in units of concentration. Turning to `CCCOC(=O)c1ccc(-c2ccc(C=C3C(=O)N(c4ccc(S(N)(=O)=O)cc4)N=C3C(F)(F)F)o2)cc1` [Compound 2], the Kd in test [1] was 6.2 µM.

On to `COC(=O)c1ccc(-c2ccc(C=C3C(=O)N(c4ccc(S(N)(=O)=O)cc4)N=C3C(F)(F)F)o2)cc1` [Compound 3], for which the Kd in test [1] is 32 µM. Besides, the “neutrophil adhesion compared to the TNF-α control” value in test [2] (3 microgram/ml compound, 30 minutes) was “significantly reduced neutrophil adhesion”. On to `O=C1Nc2cc(C(=O)N3CCN(c4ccccc4)CC3)ccc2NC1CSCc1c(F)cccc1Cl` (stereo not shown) [Compound 4], for which the Kd in test [1] is 7.3 µM. Regarding `Cc1ccc(N(C)S(=O)(=O)c2ccc3[nH]cc(C(=O)N4CCN(c5ccccc5)CC4)c(=O)c3c2)cc1C` [Compound 6], in test [1], the Kd is 6.1 µM. As for `CN1CCN(c2ccc(/C=C3\Sc4ccccc4C3=O)cc2[N+](=O)[O-])CC1` [Compound 7], the Kd in test [1] was 10 µM. By IC50 is commonly meant the midpoint of a concentration-inhibition curve. In the case of `CCCCCC1C(=O)Nc2cc(C(=O)N3CCN(CCC)CC3)ccc2N1CC` (stereo not shown) [Compound 9], in test [3], the IC50 is 370 µM. Consider `CCCCCC1C(=O)Nc2cc(C(=O)N3CCN(CC)CC3)ccc2N1C` (stereo not shown) [Compound 10], for which, in test [3], the IC50 is 360 µM. With `CCCCC1C(=O)Nc2cc(C(=O)N3CCN(C)CC3)ccc2N1C` (stereo not shown) [Compound 11], the IC50 in test [3] is 329 µM. On to `CCCCC1Nc2ccc(C(=O)N3CCN(C)CC3)cc2NC1=O` (stereo not shown) [Compound 12], for which the IC50 in test [3] is 313 µM.

With `CCC(=O)CCCC1C(=O)Nc2cc(C(=O)N3CCN(c4ccccc4)CC3)ccc2N1Cc1ccccc1` (stereo not shown) [Compound 14], the IC50 in test [3] was 170 µM. With `O=C1Nc2cc(C(=O)N3CCN(c4ccccc4O)CC3)ccc2NC1CCCc1ccccc1` (stereo not shown) [Compound 15], in test [3], the IC50 was 113 µM. On to `O=C1Nc2cc(C(=O)N3CCN(c4ccccc4)CC3)ccc2NC1CCCc1ccccc1C(F)(F)F` (stereo not shown) [Compound 16], for which the half-inhibitory concentration (IC50) in test [3] is 71 µM. `CCN1c2ccc(C(=O)N3CCN(c4ncccn4)CC3)cc2NC(=O)C1CCCc1ccc(C(N)=O)cc1` (stereo not shown) [Compound 17]: in test [3], the IC50 is 68 µM. For the molecule `CC(=O)Nc1cccc(CCCC2Nc3ccc(C(=O)N4CCN(c5cccc(C(F)(F)F)c5)CC4)cc3NC2=O)c1` (stereo not shown) [Compound 19], the IC50 in test [3] was 23 µM. Regarding `O=C(O)c1ccc(CCCC2Nc3ccc(C(=O)N4CCN(c5ccco5)CC4)cc3NC2=O)cc1` (stereo not shown) [Compound 20], in test [3], the IC50 is 10 µM.

For the molecule `COc1ccccc1N1CCN(C(=O)c2ccc3c(c2)NC(=O)C(CCCc2ccccc2C)N3)CC1` (stereo not shown) [Compound 21], the half-inhibitory concentration (IC50) in test [3] was 4.4 µM. On to `NC(=O)c1ccc(CCCC2Nc3ccc(C(=O)N4CCN(c5ncccn5)CC4)cc3NC2=O)cc1` (stereo not shown) [Compound 22], for which the IC50 in test [3] is 2.6 µM. In the case of “SAP: Serum Amyloid P from EMD Millipore, known to inhibit neutrophil migration and adhesion [reference compound]”, the “neutrophil adhesion compared to the TNF-α control” value in test [2] (10 microgram/ml SAP) is “significantly reduced neutrophil adhesion”.
